Results on 27 compounds are retold here after patent publication US20070099911A1, “Pyrroloquinolinone derivatives as 5-hydroxytryptamine-6 ligands” (Wyeth, priority 2005, published 2007).

Counter-ions that a name gives are not always drawn. Like-named read-outs stand apart in the source and are kept apart here.

The target in data set [1] is T1, human cloned 5-HT6 receptors (Homo sapiens, UniProt P50406).
T1 construct: expressed in transfected cells; host or cells: HeLa cells (membrane preparation)
Briefly: Comparative evaluation of 5-HT6 binding affinity ([3H]-LSD displacement, Hela cell membranes). On the procedure: Comparative Evaluation of 5-HT6 Binding Affinity of Test Compounds
The affinity of test compounds for the 5-HT6 receptor is evaluated in the following manner. Cultured Hela cells expressing human cloned 5-HT6 receptors are harvested and centrifuged at low speed (1,000×g) for 10.0 min to remove the culture media. The harvested cells are suspended in half volume of fresh physiological phosphate buffered saline (PBS) solution and recentrifuged at the same speed. This operation is repeated. The collected cells are then homogenized in ten volumes of 50 mM Tris.HCl (pH 7.4) and 0.5 mM EDTA. The homogenate is centrifuged at 40,000×g for 30.0 min, and the precipitate is collected. The obtained pellet is resuspended in 10 volumes of Tris.HCl buffer and recentrifuged at the same speed. The final pellet is suspended in a small volume of Tris.HCl buffer, and the tissue protein content is determined in aliquots of 10-25 microliter volumes. Bovine Serum Albumin is used as the standard in the protein determination according to the method described in Lowry et al., J. Biol. Chem. 1951, 193, 265. The volume of the suspended cell membranes is adjusted to give a tissue protein concentration of 1.0 mg/ml of suspension. The prepared membrane suspension (10 times concentrated) is aliquoted in 1.0 ml volumes and stored at −70° C. until used in subsequent binding experiments.
The reaction is allowed to proceed in the dark for 120 min at room temperature, at which time, the bound ligand-receptor complex is filtered off on a 96-well unifilter with a Packard Filtermate® 196 Harvester. The bound complex caught on the filter disk is allowed to air dry, and the radioactivity is measured in a Packard TopCount® equipped with six photomultiplier detectors, after the addition of 40.0 micoliters Micorscint®-20 scintillant to each shallow well. The unifilter plate is heat-sealed and counted in a Packard TopCount® with a tritium efficiency of 31%.
Specific binding to eh 5-HT6 receptor is defined as the total radioactivity bound less the amount bound in the presence of […] unlabelled methiothipin. Binding in the presence of varying concentrations of test compound is expressed as a percentage of specific binding in the absence of test compound. The results are plotted as log % bound versus log concentration of the test compound. […] A linear regression is plotted, from which the IC50 value is determined, and the Ki value is determined based upon the following equation: Ki=IC50/(1+L/KD) where L is the concentration of the radioactive ligand used and KD is the dissociation constant of the ligand for the receptor, both expressed in nM.

T1 sequence (P50406 whole entry): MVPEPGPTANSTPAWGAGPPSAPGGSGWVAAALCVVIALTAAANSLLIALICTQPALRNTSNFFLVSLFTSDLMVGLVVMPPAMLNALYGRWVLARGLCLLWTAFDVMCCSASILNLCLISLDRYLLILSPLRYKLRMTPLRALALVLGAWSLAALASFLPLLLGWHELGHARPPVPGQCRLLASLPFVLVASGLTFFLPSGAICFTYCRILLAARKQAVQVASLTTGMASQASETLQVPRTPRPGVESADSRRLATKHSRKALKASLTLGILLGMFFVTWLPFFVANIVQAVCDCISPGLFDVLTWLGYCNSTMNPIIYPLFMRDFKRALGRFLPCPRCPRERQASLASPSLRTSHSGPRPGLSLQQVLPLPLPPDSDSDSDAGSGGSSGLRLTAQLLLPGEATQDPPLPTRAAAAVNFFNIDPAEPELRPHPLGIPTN

For `Cn1cnc2c(ccc3[nH]cc(CCN)c32)c1=O`, the melting point fell in the range of 279 to 285 °C.
The same measure, in the same setting: then `NCCc1c(Br)[nH]c2ccc3c(=O)[nH]ccc3c12` (as salt: HBr), with 252 °C (dec.); and `O=c1[nH]ccc2c1ccc1[nH]cc(CCN(Cc3ccccc3)Cc3ccccc3)c12` (as salt: HCl), with 250 to 253 °C; and `O=c1[nH]ccc2c3c(ccc12)N=CC3CCNCc1ccccc1` (stereo not shown) (as salt: HCl) [Example 7A, 1-(2-Benzylaminoethyl)-6,7-dihydro-1H-pyrrolo[3,2-f]isoquinolin-6-one], with 210 °C.
On the same count and under the same terms, the figure for `Cn1ccc2c(ccc3[nH]cc(CCNCCc4ccccc4)c32)c1=O` (as salt: HCl) [Example 95, 7-methyl-1-(2-phenethylaminoethyl)-3H,7H-pyrrolo[3,2-f]isoquinolin-6-one] is 205 to 208 °C; for `O=c1c2ccc3c(c(CCN(Cc4ccccc4)Cc4ccccc4)cn3Cc3ccccc3)c2ccn1Cc1ccccc1` (as salt: HCl) [Example 1018, 3,7-dibenzyl-1-(2-dibenzylaminoethyl)-3H,7H-pyrrolo[3,2-f]isoquinolin-6-one] it is 234 to 236 °C.
Compound `CNCCc1c[nH]c2ccc3c(=O)[nH]ccc3c12` (as salt: HCl) [Example 1021, 1-(2-methylaminoethyl)-3H,7H-pyrrolo[3,2-f]isoquinolin-6-one] registered a melting point of 160 °C.
Still for that read-out and setting: the figure for `CN(CCc1c[nH]c2ccc3c(=O)[nH]ccc3c12)Cc1ccccc1` (as salt: hydrochloride) is 152 to 155 °C; for `NCCc1c[nH]c2ccc3c(=O)n(CCc4ccccc4)ccc3c12` (as salt: hydrochloride) it is 162 to 166 °C; for `CCn1ccc2c(ccc3[nH]cc(CCN)c32)c1=O` (as salt: hydrochloride) it is 224 to 227 °C.
In turn, `NCCc1c[nH]c2ccc3c(=O)n(CC4CCCCO4)ccc3c12` (stereo not shown) (as salt: hydrochloride) gave a melting point of 260 to 262 °C.
On the same count and under the same terms, then `NCCc1c[nH]c2ccc3c(=O)n(Cc4ccc(F)cc4)ccc3c12` (as salt: hydrochloride), with 247 to 249 °C.
The same measure, in the same setting: the figure for `NCCc1c[nH]c2ccc3c(=O)n(Cc4ccccc4F)ccc3c12` (as salt: hydrochloride) is greater than 250 °C; for `NCCc1c[nH]c2ccc3c(=O)[nH]ccc3c12` (as salt: hydrochloride) it is greater than 280 °C.
Still for that read-out and setting: then `Cn1ccc2c(ccc3[nH]cc(CCN)c32)c1=O` (as salt: hydrochloride) [Example 94], with 295 to 298 °C.
In turn, `NCCc1c[nH]c2ccc3c(=O)n(Cc4ccccc4)ccc3c12` (as salt: hydrochloride) [Example 182] registered a melting point of 266 to 268 °C.
Still for that read-out and setting: then `NCCCc1c[nH]c2ccc3c(=O)[nH]ccc3c12` (as salt: hydrochloride) [Example 268, 1-(3-aminopropyl)-3H,7H-pyrrolo[3,2-f]isoquinolin-6-one], with 225 to 230 °C; and `NCCc1c[nH]c2ccc3c(=O)n(CC4CCCCC4)ccc3c12` (as salt: hydrochloride) [Example 269, 1-(2-aminoethyl)-7-cyclohexylmethyl-3H,7H-pyrrolo[3,2-]isoquinolin-6-one], with 220 to 224 °C; and `NCCc1c(-c2ccc(Cl)cc2)[nH]c2ccc3c(=O)[nH]ccc3c12` (as salt: hydrochloride) [Example 278, 1-(2-aminoethyl)-2-(4-chlorophenyl)-3H,7H-pyrrolo[3,2-f]isoquinolin-6-one], with greater than 300 °C.
As for `O=c1[nH]ccc2c3c(ccc12)N=CC3CCNCc1ccccc1` (stereo not shown) [Example 7A, 1-(2-Benzylaminoethyl)-6,7-dihydro-1H-pyrrolo[3,2-f]isoquinolin-6-one], the Ki in data set [1] ([3H]-LSD displacement, membranes of Hela cells expressing human cloned 5-HT6 receptors, read-out: 5-HT6 binding Ki) came out at 15 nM.
`Cn1ccc2c(ccc3[nH]cc(CCN)c32)c1=O` [Example 94]: the Ki in data set [1] was 18 nM.
Compound `NCCc1c[nH]c2ccc3c(=O)n(Cc4ccccc4)ccc3c12` [Example 182] yielded a Ki in data set [1] of 11 nM.
On the same count and under the same terms, the figure for `NCCc1c[nH]c2ccc3c(=O)n(CC4CCCCC4)ccc3c12` [Example 269, 1-(2-aminoethyl)-7-cyclohexylmethyl-3H,7H-pyrrolo[3,2-]isoquinolin-6-one] is 13 nM; for `NCCc1c[nH]c2ccc3c(=O)n(Cc4ccsc4)ccc3c12` [Example 274, 1-(2-aminoethyl)-7-thiophen-3-ylmethyl-3H,7H-pyrrolo[3,2-f]isoquinolin-6-one] it is 11 nM.
Same read-out and setting: the figure for `CNCCc1c[nH]c2ccc3c(=O)[nH]ccc3c12` [Example 1021, 1-(2-methylaminoethyl)-3H,7H-pyrrolo[3,2-f]isoquinolin-6-one] is 21 nM.
With `O=c1c2ccc3[nH]cc(CCNS(=O)(=O)c4ccccc4)c3c2ccn1Cc1ccccc1` [Example 1022, N-[2-(7-benzyl-6-oxo-6,7-dihydro-3H-pyrrolo[3,2-f]isoquinolin-1-yl)-ethyl]-benzenesulfonamide], the melting point lay within 205 to 206 °C.
For `NCCc1c[nH]c2ccc3c(=O)n(Cc4ccccc4)cnc3c12` [Example 1029], the melting point lay in the range of 302 to 305 °C. Moreover, the Ki in data set [1] stood at 32 nM.

A word on the melting point: it is the temperature, or range, at which the solid turns liquid. By Ki is commonly meant a dissociation constant, usually derived from enzyme kinetics or from competition with a known ligand.
